Molecular target: hTRPV1 (Homo sapiens, UniProt Q8NER1)
Format: cell-based

hTRPV1, sequence (Q8NER1 whole entry): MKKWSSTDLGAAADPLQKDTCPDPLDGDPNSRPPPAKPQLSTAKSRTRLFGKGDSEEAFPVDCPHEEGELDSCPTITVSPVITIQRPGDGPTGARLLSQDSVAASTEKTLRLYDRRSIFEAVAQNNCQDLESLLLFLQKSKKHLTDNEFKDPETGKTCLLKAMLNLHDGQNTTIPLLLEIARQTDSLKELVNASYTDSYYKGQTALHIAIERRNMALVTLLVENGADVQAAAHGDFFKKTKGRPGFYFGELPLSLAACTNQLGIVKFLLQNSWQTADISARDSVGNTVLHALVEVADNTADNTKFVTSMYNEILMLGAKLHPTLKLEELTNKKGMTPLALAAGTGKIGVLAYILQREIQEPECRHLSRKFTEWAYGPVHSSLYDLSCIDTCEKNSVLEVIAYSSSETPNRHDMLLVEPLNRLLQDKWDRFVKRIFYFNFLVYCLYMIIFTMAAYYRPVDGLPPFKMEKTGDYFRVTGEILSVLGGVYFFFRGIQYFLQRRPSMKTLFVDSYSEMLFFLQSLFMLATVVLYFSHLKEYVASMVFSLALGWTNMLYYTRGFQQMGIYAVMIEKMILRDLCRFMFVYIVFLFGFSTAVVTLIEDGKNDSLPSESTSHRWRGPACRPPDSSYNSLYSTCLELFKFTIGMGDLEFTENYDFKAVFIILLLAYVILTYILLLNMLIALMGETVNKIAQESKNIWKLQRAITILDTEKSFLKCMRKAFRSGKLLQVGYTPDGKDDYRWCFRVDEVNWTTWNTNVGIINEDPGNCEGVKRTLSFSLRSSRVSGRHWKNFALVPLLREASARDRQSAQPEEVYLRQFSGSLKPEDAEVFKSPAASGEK

Molecule `CCCCCCCCCCCC(=O)NCCO` [compound 3, lauric acid monoethanolamide] has an EC50 of 3.2 µM.

Reference: publication PMC11164132 (British journal of pharmacology, 2021)
